Reference: patent publication US12638438B2, “Screening methods using canine T2R receptors and pet food products and compositions identified using the same” (MARS, INCORPORATED, priority 2015, dated 2026)
Blank lines part the entries; values can stand above or below the compound they belong to.

Tests used:
canine T2R10 = target: T1, canine T2R10 (Canis lupus, UniProt Q2ABD4); experiment: Canine T2R10 activation, intracellular calcium assay in transiently transfected HEK293 cells, dose response (FIG. 8E); format: cell-based; conditions: agonist; HEK293 transient, cT2R10 (SEQ ID NO:23); calcium fluorescence or luminescence, FLIPR Tetra; at least 8 concentrations in triplicate
T1 sequence (Q2ABD4 1-322): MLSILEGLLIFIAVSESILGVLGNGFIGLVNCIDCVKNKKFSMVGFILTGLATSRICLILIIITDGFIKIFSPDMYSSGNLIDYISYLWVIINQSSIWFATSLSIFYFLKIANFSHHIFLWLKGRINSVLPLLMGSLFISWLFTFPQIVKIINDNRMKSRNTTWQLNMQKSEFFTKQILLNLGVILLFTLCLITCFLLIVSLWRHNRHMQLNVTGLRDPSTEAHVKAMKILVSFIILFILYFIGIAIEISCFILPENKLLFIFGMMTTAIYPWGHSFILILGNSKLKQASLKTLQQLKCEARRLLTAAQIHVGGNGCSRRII
Description: Lys258 and Leu180 (backbone) can potentially make hydrogen bonds with the ligand.
(§1) No wash step was required for the luminescent protocol.

canine T2R43 = canine T2R43 (Canis lupus, UniProt A0A8I3S925); experiment: cell-based
Sequence of canine T2R43 (A0A8I3S925 1-349): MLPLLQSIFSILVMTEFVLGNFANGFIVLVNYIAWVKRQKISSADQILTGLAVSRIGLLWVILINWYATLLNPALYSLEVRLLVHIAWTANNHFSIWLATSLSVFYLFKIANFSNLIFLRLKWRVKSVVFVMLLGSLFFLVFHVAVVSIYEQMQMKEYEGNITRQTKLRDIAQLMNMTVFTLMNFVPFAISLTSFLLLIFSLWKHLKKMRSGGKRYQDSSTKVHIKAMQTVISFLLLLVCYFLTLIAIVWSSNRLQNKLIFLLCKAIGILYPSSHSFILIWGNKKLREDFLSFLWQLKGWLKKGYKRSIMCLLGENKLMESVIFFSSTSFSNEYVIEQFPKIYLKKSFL
Description: In vitro functional characterization of the selected modulators was used to evaluate the effectiveness of the putative modulator compounds in modulating the activation of the bitter taste receptors.
HEK293 cells that transiently expressed a canine bitter taste receptor selected from canine T2R1, T2R2, T2R3, T2R4, T2R5, T2R10, and T2R43, were exposed to compounds to determine whether the compounds modulated the activity of the bitter taste receptors.
All transient transfections were performed with Lipofectamine2000 (Invitrogen) according to the manufactures protocol. 10 μl Lipofectamine2000 were diluted in 500 μl DMEM (Life Technologies) and incubated for 5 minutes at room temperature. […] At 27 to 30 hours post-transfection the medium was removed from the cells and 20 μl loading buffer that included a calcium sensitive fluorescent dye or luminescent substrate (Tyrode's buffer+2 μM Fluo4-AM (Invitrogen)+2.5 mM probenecid (Invitrogen) for fluorescence or Coelenterazine (Biosynth)+Tyrode's buffer for luminescence) were added for 1 hour (fluorescence) or 3 hours (luminescence) at 37° C. […]
Activation of the bitter taste receptor was determined by detecting a change in intracellular calcium levels as measured by fluorescence or luminescence of the calcium sensitive fluorescent dye or luminescent photoprotein. […] A FLIPR® Tetra system was used to measure fluorescence or luminescence. […]

canine T2R2 = target: T2, canine T2R2 (Canis lupus, UniProt Q2ABD9); experiment: Canine T2R2 activation, intracellular calcium assay in transiently transfected HEK293 cells, dose response (FIG. 4E); format: cell-based; conditions: agonist; HEK293 transient, cT2R2 (SEQ ID NO:18); calcium fluorescence or luminescence, FLIPR Tetra; at least 8 concentrations in triplicate
T2 sequence (Q2ABD9 1-303): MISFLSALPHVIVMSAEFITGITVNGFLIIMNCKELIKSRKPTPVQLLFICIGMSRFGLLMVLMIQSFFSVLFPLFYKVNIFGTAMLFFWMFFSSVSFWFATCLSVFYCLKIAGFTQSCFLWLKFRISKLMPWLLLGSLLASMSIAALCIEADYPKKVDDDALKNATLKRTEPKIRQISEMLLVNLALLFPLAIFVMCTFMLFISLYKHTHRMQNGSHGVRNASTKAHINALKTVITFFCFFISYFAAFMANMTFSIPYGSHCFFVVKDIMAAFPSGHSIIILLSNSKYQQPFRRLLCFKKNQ
Description: Residues that can potentially make hydrogen bond or salt bridge interactions with the ligand include Ser94, Trp90, Lys268, Tyr245, and Glu180.
as §1

canine T2R3 = target: T3, canine T2R3 (Canis lupus, UniProt Q2ABD8); experiment: Canine T2R3 activation, intracellular calcium assay in transiently transfected HEK293 cells, dose response (FIG. 5E); format: cell-based; conditions: agonist; HEK293 transient, cT2R3 (SEQ ID NO:19); calcium fluorescence or luminescence, FLIPR Tetra; at least 8 concentrations in triplicate
T3 sequence (Q2ABD8 1-316): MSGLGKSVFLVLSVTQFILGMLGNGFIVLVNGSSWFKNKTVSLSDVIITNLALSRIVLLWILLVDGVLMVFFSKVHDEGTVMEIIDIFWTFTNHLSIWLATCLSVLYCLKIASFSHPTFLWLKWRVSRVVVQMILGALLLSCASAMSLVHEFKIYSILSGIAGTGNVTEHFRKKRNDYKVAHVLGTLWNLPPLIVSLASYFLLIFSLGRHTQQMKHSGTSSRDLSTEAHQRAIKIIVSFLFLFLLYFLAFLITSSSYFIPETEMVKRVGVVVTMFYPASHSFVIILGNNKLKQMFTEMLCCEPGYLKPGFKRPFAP
Description: Residues that can make hydrogen bonding or charged interactions with the ligand include Asn93 and Asp86. […] Additional residues making primarily van der Waals interactions with the ligand include Phe250, Gly185, Phe243, Thr90, Asn176, Val149, Ile154, Lys174, Met82, Ile85, Lys173, and Met69.
as §1

canine T2R5 = target: T4, canine T2R5 (Canis lupus, UniProt Q2ABD6); experiment: Canine T2R5 activation, intracellular calcium assay in transiently transfected HEK293 cells, dose response (FIG. 7E); format: cell-based
T4 sequence (Q2ABD6 1-295): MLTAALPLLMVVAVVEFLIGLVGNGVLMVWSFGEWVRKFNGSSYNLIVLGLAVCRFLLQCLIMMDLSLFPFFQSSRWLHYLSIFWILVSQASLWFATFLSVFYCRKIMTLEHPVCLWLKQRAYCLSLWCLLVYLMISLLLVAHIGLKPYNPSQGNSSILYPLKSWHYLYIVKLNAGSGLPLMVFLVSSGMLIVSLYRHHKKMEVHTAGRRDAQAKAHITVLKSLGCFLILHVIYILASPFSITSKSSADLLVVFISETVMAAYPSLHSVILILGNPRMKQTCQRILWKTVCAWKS
Description: There is a potential hydrogen bond between Ser89 and each nitrogen of 1, 10 Phenanthroline. Additional residues that can potentially make van der Waals or Pi interactions with the ligand include Pro264, Leu58, Val88, Gln90, Ile86, Leu173, Trp165, Thr258, Ala261, Tyr234, Glu257, Met260, and Trp85.
as §1

canine T2R1 = target: T5, canine T2R1 (Canis lupus, UniProt Q2ABE0); experiment: Canine T2R1 activation, intracellular calcium assay in transiently transfected HEK293 cells, dose response (FIG. 3E); format: cell-based
T5 sequence (Q2ABE0 1-297): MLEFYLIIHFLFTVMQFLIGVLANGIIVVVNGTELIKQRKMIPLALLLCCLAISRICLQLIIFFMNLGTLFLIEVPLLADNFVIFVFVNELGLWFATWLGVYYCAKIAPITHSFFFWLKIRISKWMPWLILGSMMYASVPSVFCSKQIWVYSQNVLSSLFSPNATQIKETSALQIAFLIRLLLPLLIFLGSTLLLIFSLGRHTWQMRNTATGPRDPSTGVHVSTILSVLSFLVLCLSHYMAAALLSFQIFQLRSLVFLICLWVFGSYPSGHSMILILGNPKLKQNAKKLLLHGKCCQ
Description: FIGS. 2A-2C show canine T2R sequence alignments. The dashed grey arrows indicate active site positions occupied by mostly asparagine or serine residues. The solid black arrows indicate structural tryptophan residues that are present in all human and cat bitter receptors as well as all canine bitter receptors except T2R12. The dashed black arrows indicate the conserved asparagine which is present in most of the bitter receptors. The conjoined solid arrows indicate the conserved LxxxR motif (IxxxR for some instances in T2R2), wherein x can be any amino acid. […] Asn89 can potentially make a hydrogen bond interaction with the ligand. Other residues that can potentially make hydrogen bonding interactions, pi interactions, or charged interactions with the ligand include Tyr239.
as §1

Compound: CC(=O)OC(C)(C)/C=C/C(=O)[C@](C)(O)[C@H]1[C@H](O)C[C@@]2(C)[C@@H]3CC=C4[C@@H](C[C@H](O)C(=O)C4(C)C)[C@]3(C)C(=O)C[C@]12C [Cucurbitacin B]
EC50 (canine T2R10): 0.3 ± 0.034 µM

EC50 (canine T2R43): 126 ± 23 µM
Compound: CCCc1cc(=O)[nH]c(=S)[nH]1 [Propylthiouracil]

EC50 (canine T2R2): 232 ± 14 µM
Compound: CC1COc2c(N3CCN(C)CC3)c(F)cc3c(=O)c(C(=O)O)cn1c23 (stereo not drawn) [Ofloxacin]

Compound: CCN(CC)CCCC(C)Nc1ccnc2cc(Cl)ccc12 (stereo not drawn) [Chloroquine]
EC50 (canine T2R3): 81 ± 11 µM

Compound: c1cnc2c(c1)ccc1cccnc12 [1, 10 Phenanthroline, 1,10-phenanthroline]
EC50 (canine T2R5): 564 ± 114 µM

Compound: CC(C)[C@@H]1CC[C@@H](C)C[C@H]1O [Menthol]
EC50 (canine T2R1): 1080 ± 216 µM
